Reference: patent US8759339B2, “Pyrrolo[2,1-c][1,4]naphthodiazepine linked piperazine compounds and a process for the preparation thereof” (Council of Scientific & Industrial Research, priority 2011, dated 2014)
Read-outs that look alike come from different tables or passages of the source.

Assays:
calf thymus DNA (CT-DNA) = assay: Thermal denaturation studies with duplex-form calf thymus DNA; format: binding; settings: [PND]/[DNA] molar ratio 1:5, CT-DNA 100 μM, ligand 20 μM, aqueous sodium phosphate buffer pH 7; for ΔTm after incubation at 37° C. for 0 hr: 0 hr at 37° C.; for ΔTm after incubation at 37° C. for 18 hrs: 18 hrs at 37° C.
Procedure: Compounds have been subjected to thermal denaturation studies with duplex-form calf thymus DNA (CT-DNA) using an modification of a reported procedure (Newman, M. S. Carcinog-compr. Surv. 1976, 1, 203; (b) Hecht, S. S.; Loy, M.; Hoffman, Carcinog-compr. Surv. 1976, 1, 325). Working solutions in aqueous buffer (10 mM NaH2PO4/Na2HPO4, 1 mM Na2EDTA, pH 7.00+0.01) containing CT-DNA (100 μm in phosphate) and the PND (pyrrolo naphtha diazepine) (20 μm) have been prepared by addition of concentrated PND (pyrrolo naphtha diazepine) solutions in DMSO to obtain a fixed [PND]/[DNA] molar ratio of 1:5. The DNA-PND (pyrrolo naphtha diazepine) solutions have been incubated at 37° C. for 0 and 18 h prior to analysis. Samples have been monitored at 260 nm using a Beckman DU-800 spectrophotometer fitted with high performance temperature controller, and heated at 1° C. min in the 40-110° C. range. DNA helix→coil transition temperatures (Tm) have been obtained from the maxima in the d(A260)/dT derivative plots. Drug-induced alterations in DNA melting behavior are given by: ΔTm=Tm(DNA+PND)−Tm(DNA alone), where the Tm value for the PND-free CT-DNA is 69.1±0.01.
The DNA binding activity for these novel substituted piperazine linked pyrrolo naphtho diazepine hybrids has been examined by thermal denaturation studies using calf thymus (CT) DNA. […] The data for some of the compounds are included in Table 1 for comparison.

[1] = system: NCIH460 large cell lung cancer cell line; assay: In vitro anticancer activity, MTT assay; format: cell-based, human; settings: for IC50: large cell lung cancer cell line, MTT, 48 h continuous drug exposure; for in-vitro cytotoxicity in large cell lung cancer cell line (NCIH460): result in words
Procedure: (§1) In vitro biological activity studies were carried out at the pharmacology division, IICT, Hyderabad. The compounds were evaluated for in vitro anticancer activity against eight tumour cell lines derived from […] cancer types (breast, lung, liver, skeletal, kidney, prostrate, small intestine) as shown in Table 2. For each compound, dose response curves for each cell line were measured at a minimum of five concentrations at 10 fold dilutions. A protocol of 48 h continuous drug exposure was used and a MTT assay was used to estimate cell viability or growth. The concentration causing 50% inhibition (IC50) compared with the control was calculated. Some of the compounds have been evaluated for their in vitro cytotoxicity in eight cell lines from seven human cancer types. The results are expressed as IC50 determined relative to that of untreated control cells (Table-2).

[2] = system: HEPG2 liver cancer cell line; assay: In vitro anticancer activity, MTT assay; format: cell-based, human; settings: for in-vitro cytotoxicity in liver cancer cell line (HEPG2): result in words
Procedure: as §1

[3] = system: PC-3 prostrate cancer cell line; assay: In vitro anticancer activity, MTT assay; format: cell-based, human; settings: for IC50: prostrate cancer cell line, MTT, 48 h continuous drug exposure; for in-vitro cytotoxicity in prostrate cancer cell line (PC-3): result in words
Procedure: as §1

[4] = system: A549 lung cancer cell line; assay: In vitro anticancer activity, MTT assay; format: cell-based, human; settings: for in-vitro cytotoxicity in lung cancer cell line (A549): result in words
Procedure: as §1

[5] = system: MCF7 breast cancer cell line; assay: In vitro anticancer activity, MTT assay; format: cell-based, human; settings: for IC50: breast cancer cell line, MTT, 48 h continuous drug exposure; for in-vitro cytotoxicity in breast cancer cell line (MCF-7): result in words
Procedure: as §1

[6] = In vitro anticancer activity, MTT assay; format: cell-based; settings: kidney cancer cell line; MTT, 48 h continuous drug exposure; read-out: IC50 COS-1
Procedure: as §1

[7] = system: IEC-6 small intestine cell line; assay: In vitro anticancer activity, MTT assay; format: cell-based; settings: for in-vitro cytotoxicity in small intestine cancer cell line (IEC-6): result in words
Procedure: as §1

L-6 = assay: In vitro anticancer activity, MTT assay; format: cell-based; settings: skeletal cancer cell line; MTT, 48 h continuous drug exposure
Procedure: as §1

[8] = system: COS-1 kidney cancer cell line; assay: In vitro anticancer activity, MTT assay; format: cell-based; settings: for IC50: COS-1, range over the listed compounds, exposure period of at least 48 hrs, read-out: IC50 against kidney cancer cell lines
Procedure: as §1

[9] = system: L-6 skeletal cancer cell line; assay: In vitro anticancer activity, MTT assay; format: cell-based; settings: result in words
Procedure: as §1

[10] = liver cancer cell line, MTT, 48 h continuous drug exposure, read-out: IC50 HEPG2
[11] = lung cancer cell line, MTT, 48 h continuous drug exposure, read-out: IC50 A549
[12] = small intestine cell line, MTT, 48 h continuous drug exposure, read-out: IC50 IEC-6
[13] = Homo sapiens, HepG2, liver cancer cell line, MTT, 48 h continuous drug exposure, read-out: IC50 HEPG2
[14] = Homo sapiens, HepG2, range over the listed compounds, exposure period of at least 48 hrs, read-out: IC50 against liver cancer cell lines
[15] = Homo sapiens, A549, lung cancer cell line, MTT, 48 h continuous drug exposure, read-out: IC50 A549
[16] = Homo sapiens, A549, range over the listed compounds, exposure period of at least 48 hrs, read-out: IC50 against lung cancer cell lines
[17] = IEC-6, range over the listed compounds, exposure period of at least 48 hrs, read-out: IC50 against small intestine cancer cell lines
[18] = IEC-6, small intestine cell line, MTT, 48 h continuous drug exposure, read-out: IC50 IEC-6

SMILES | ΔTm after incubation at 37° C. for 0 hr (calf thymus DNA (CT-DNA)) [°C] | ΔTm after incubation at 37° C. for 18 hrs (calf thymus DNA (CT-DNA)) [°C] | IC50 [1] [µM] | IC50 [2, 10] [µM] | IC50 [3] [µM] | IC50 [4, 11] [µM] | IC50 [5] [µM] | IC50 [6] [µM] | IC50 [7, 12] [µM] | IC50 (L-6) [µM] | in-vitro cytotoxicity in large cell lung cancer cell line (NCIH460) [1] | in-vitro cytotoxicity in liver cancer cell line (HEPG2) [2] | in-vitro cytotoxicity in prostrate cancer cell line (PC-3) [3] | in-vitro cytotoxicity in lung cancer cell line (A549) [4] | in-vitro cytotoxicity in breast cancer cell line (MCF-7) [5] | in-vitro cytotoxicity in skeletal cancer cell line (L-6) [9] | in-vitro cytotoxicity in small intestine cancer cell line (IEC-6) [7] | IC50 ([1]; Homo sapiens, NCI-H460) [µM] | IC50 [2, 13] [µM] | IC50 [2, 14] [µM] | other results
COc1cc2c(cc1O)N=CC1CCCN1C2=O (stereo not shown) [DC-81, reference compound] | 0.3 | 0.7 | 8.93 | 5.27 | 14.2 | 17.5 | 12.6 | 32.9 | 15.4 | 27.6 | – | – | – | – | – | – | – | – | – | – | –
COc1cc2cc3c(cc2cc1OCCN1CCN(c2ccccc2)CC1)N=C[C@@H]1CCCN1C3=O [8a, 8-Methoxy-9-[2-(4-phenylpiperazino)ethoxy]-(13aS)-1,2,3,13a-tetrahydro-5H-pyrrolo[2,1-c][1,4]naphthodiazepin-5-one] | 5.1 | 6.9 | 0.43 | 0.47 | 1.6 | 7.42 | 1.5 | 6.39 | 0.14 | 1.01 | exhibiting in-vitro cytotoxicity | exhibiting in-vitro cytotoxicity | exhibiting in-vitro cytotoxicity | exhibiting in-vitro cytotoxicity | exhibiting in-vitro cytotoxicity | exhibiting in-vitro cytotoxicity | exhibiting in-vitro cytotoxicity | – | – | – | in-vitro cytotoxicity in kidney cancer cell line (COS-1) ([8]; result in words): exhibiting in-vitro cytotoxicity
COc1cc2cc3c(cc2cc1OCCN1CCN(c2ccc(F)cc2)CC1)C(=O)N1CCC[C@H]1C=N3 [20a, 9-Methoxy-8-(2-[4-(4-fluorophenyl)piperazino]ethoxy)-(13aS)-1,2,3,13a-tetrahydro-5H-pyrrolo[2,1-c][1,4]naphthodiazepin-5-one] | 5.9 | 7.0 | – | – | – | – | – | – | – | 6.36 | exhibiting in-vitro cytotoxicity | exhibiting in-vitro cytotoxicity | exhibiting in-vitro cytotoxicity | exhibiting in-vitro cytotoxicity | exhibiting in-vitro cytotoxicity | exhibiting in-vitro cytotoxicity | exhibiting in-vitro cytotoxicity | 0.99 | 4.03 | 0.02 to 7.32 | IC50 ([3]; Homo sapiens): 4.37 µM; IC50 [4, 15]: 10.6 µM; IC50 [4, 16]: 0.02 to 11.9 µM; IC50 ([5]; Homo sapiens, MCF7): 3.99 µM; IC50 [8]: 0.8 to 4.32 µM; IC50 [7, 17]: 0.01 to 5.84 µM; IC50 [7, 18]: 5.84 µM
COc1cc2cc3c(cc2cc1OCCN1CCN(C(C)=O)CC1)N=C[C@@H]1CCCN1C3=O [5a, 8-Methoxy-9-[2-(4-acetylpiperazino)ethoxy]-(13aS)-1,2,3,13a-tetrahydro-5H-pyrrolo[2,1-c][1,4]naphthodiazepin-5-one] | 5.5 | 7.1 | 1.68 | 7.32 | 13.5 | 0.66 | 2.88 | – | – | 2.66 | exhibiting in-vitro cytotoxicity | exhibiting in-vitro cytotoxicity | exhibiting in-vitro cytotoxicity | exhibiting in-vitro cytotoxicity | exhibiting in-vitro cytotoxicity | exhibiting in-vitro cytotoxicity | – | – | – | – | –
COc1cc2cc3c(cc2cc1OCCN1CCN(c2ncccn2)CC1)C(=O)N1CCC[C@H]1C=N3 [24a, 9-Methoxy-8-(2-[4-(2-pyrimidinyl)piperazino]ethoxy)-(13aS)-1,2,3,13a-tetrahydro-5H-pyrrolo[2,1-c][1,4]naphthodiazepin-5-one] | 4.9 | 6.5 | – | – | – | – | – | – | – | 2.21 | exhibiting in-vitro cytotoxicity | exhibiting in-vitro cytotoxicity | exhibiting in-vitro cytotoxicity | exhibiting in-vitro cytotoxicity | exhibiting in-vitro cytotoxicity | exhibiting in-vitro cytotoxicity | exhibiting in-vitro cytotoxicity | 0.002 | 1.04 | 0.02 to 7.32 | IC50 ([3]; Homo sapiens): 0.01 µM; IC50 [4, 15]: 11.9 µM; IC50 [4, 16]: 0.02 to 11.9 µM; IC50 ([5]; Homo sapiens, MCF7): 1.97 µM; IC50 [8]: 0.8 to 4.32 µM; IC50 [7, 17]: 0.01 to 5.84 µM; IC50 [7, 18]: 0.2 µM
